What was measured:
Assay in all cases: relative viability (nuclei count vs DMSO), 5 days (fraction); higher = more cells survive
Imatinib + Trametinib = compound: Cc1ccc(NC(=O)c2ccc(CN3CCN(C)CC3)cc2)cc1Nc1nccc(-c2cccnc2)n1 [Imatinib] + CC(=O)Nc1cccc(-n2c(=O)n(C3CC3)c(=O)c3c(Nc4ccc(I)cc4F)n(C)c(=O)c(C)c32)c1 [Trametinib] (partner 0.02 µM)
Summary of the method: (§1)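 One day after seeding in 1536-well plates, lung cancer cell lines were dosed by pin tool. Dosing was either single-drug or a fixed anchor-drug dose plus five library-drug doses (not always all listed) in √10 steps. After 5 days, nuclei were stained in one fix-and-stain step and counted on 4× images, and relative viability is the nuclei count of treated wells over that of vehicle wells, given as the median of duplicate plates.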

Imatinib + Foretinib = compound: Cc1ccc(NC(=O)c2ccc(CN3CCN(C)CC3)cc2)cc1Nc1nccc(-c2cccnc2)n1 [Imatinib] + COc1cc2c(Oc3ccc(NC(=O)C4(C(=O)Nc5ccc(F)cc5)CC4)cc3F)ccnc2cc1OCCCN1CCOCC1 [Foretinib] (partner 0.25 µM)
Summary of the method: as §1

Imatinib + Palbociclib = compound: Cc1ccc(NC(=O)c2ccc(CN3CCN(C)CC3)cc2)cc1Nc1nccc(-c2cccnc2)n1 [Imatinib] + CC(=O)c1c(C)c2cnc(Nc3ccc(N4CCNCC4)cn3)nc2n(C2CCCC2)c1=O [Palbociclib] (partner 0.5 µM)
Summary of the method: as §1

Imatinib + Bortezomib = compound: Cc1ccc(NC(=O)c2ccc(CN3CCN(C)CC3)cc2)cc1Nc1nccc(-c2cccnc2)n1 [Imatinib] + CC(C)C[C@H](NC(=O)[C@H](Cc1ccccc1)NC(=O)c1cnccn1)B(O)O [Bortezomib] (partner 0.002 µM)
Summary of the method: as §1

Row | Cell Line | relative viability (Imatinib + Trametinib; first compound 0.02 µM) | relative viability (Imatinib + Trametinib; first compound 0.06325 µM) | relative viability (Imatinib + Trametinib; first compound 0.2 µM) | relative viability (Imatinib + Trametinib; first compound 0.6325 µM) | relative viability (Imatinib + Trametinib; first compound 2 µM) | relative viability (Imatinib + Foretinib; first compound 0.02 µM) | relative viability (Imatinib + Foretinib; first compound 0.06325 µM) | relative viability (Imatinib + Foretinib; first compound 0.2 µM) | relative viability (Imatinib + Foretinib; first compound 0.6325 µM) | relative viability (Imatinib + Foretinib; first compound 2 µM) | relative viability (Imatinib + Palbociclib; first compound 0.02 µM) | relative viability (Imatinib + Palbociclib; first compound 0.06325 µM) | relative viability (Imatinib + Palbociclib; first compound 0.2 µM) | relative viability (Imatinib + Palbociclib; first compound 0.6325 µM) | relative viability (Imatinib + Palbociclib; first compound 2 µM) | relative viability (Imatinib + Bortezomib; first compound 0.02 µM) | relative viability (Imatinib + Bortezomib; first compound 0.06325 µM) | relative viability (Imatinib + Bortezomib; first compound 0.2 µM) | relative viability (Imatinib + Bortezomib; first compound 0.6325 µM) | relative viability (Imatinib + Bortezomib; first compound 2 µM)
1 | NCI-H460 | 0.142 | 0.102 | 0.199 | 0.125 | 0.21 | 1.12 | 0.918 | 1.15 | 0.909 | 1.07 | 0.278 | 0.22 | 0.191 | 0.196 | 0.104 | 1.5 | 1.33 | 1.7 | 0.92 | 
2 | SW 900 | 0.776 | 0.625 | 0.641 | 0.756 | 0.76 | 0.879 | 1.04 | 1.09 | 0.717 | 1.04 | 0.549 | 0.644 | 0.617 | 0.566 | 0.588 |  |  |  |  | 
3 | HCC-78 | 0.837 | 0.613 | 0.9 | 0.755 | 0.881 | 0.654 | 0.577 | 0.534 | 0.44 | 0.56 | 0.468 | 0.527 | 0.528 | 0.452 | 0.499 | 0.33 | 0.34 | 0.599 | 0.358 | 0.479
4 | SK-LU-1 | 0.465 | 0.485 | 0.52 | 0.514 | 0.529 | 0.978 | 0.888 | 0.892 | 0.73 | 0.869 | 0.427 | 0.427 | 0.418 | 0.34 | 0.425 | 1.59 | 1.22 | 1.31 | 1.1 | 1.26
5 | HCC-15 | 0.399 |  | 0.411 | 0.406 | 0.359 | 1.14 |  | 1.05 | 0.987 | 1.09 | 0.496 |  | 0.822 | 0.778 | 0.713 | 1.03 | 0.93 | 1.07 | 1.13 | 1.02
6 | LC-2-ad | 0.956 |  | 1.01 | 0.973 | 0.908 | 0.926 | 0.676 | 0.886 | 0.819 | 0.982 | 0.543 |  | 0.559 | 0.5 | 0.508 | 1.16 | 0.658 | 1.18 | 0.985 | 0.929
7 | NCI-H1792 | 0.534 | 0.311 | 0.521 |  | 0.427 |  |  |  |  |  | 0.608 | 0.542 | 0.655 | 0.573 | 0.736 | 1.21 | 0.951 | 0.675 | 0.861 | 0.935
8 | COR-L23 | 0.636 | 0.494 | 0.72 | 0.697 | 0.648 |  | 1 | 1.01 | 0.984 | 1.01 | 0.329 | 0.226 | 0.303 | 0.31 | 0.297 | 1.38 | 1.03 | 1.2 | 1.18 | 0.947
9 | PC-3 [JPC-3] | 0.719 |  |  | 0.724 | 0.621 | 1.12 |  | 1.09 | 1.05 | 0.942 | 0.581 |  |  | 0.763 | 0.539 | 0.887 |  | 0.832 | 0.864 | 0.711

Reference: the supplement of paper PMC10307832
